# Laboratory results from US10246456B2, “IRAK4 inhibiting agents” (BIOGEN MA INC., priority 2014, dated 2019).
# Target: IRAK4 (Homo sapiens (Human), UniProt Q9NWZ3)
# Assay: IRAK-4 AlphaScreen biochemical kinase assay
# Conditions: 1 nM IRAK4, 1 mM ATP, 3.5 h at RT
# Summary of the method: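 AlphaScreen read-out: streptavidin beads bind the biotinylated peptide and protein A beads bind the anti-phosphothreonine antibody, so energy transfer reports phosphorylation of the peptide. The kinase is human IRAK-4.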
# IRAK4, sequence (Q9NWZ3 whole entry, species assumed): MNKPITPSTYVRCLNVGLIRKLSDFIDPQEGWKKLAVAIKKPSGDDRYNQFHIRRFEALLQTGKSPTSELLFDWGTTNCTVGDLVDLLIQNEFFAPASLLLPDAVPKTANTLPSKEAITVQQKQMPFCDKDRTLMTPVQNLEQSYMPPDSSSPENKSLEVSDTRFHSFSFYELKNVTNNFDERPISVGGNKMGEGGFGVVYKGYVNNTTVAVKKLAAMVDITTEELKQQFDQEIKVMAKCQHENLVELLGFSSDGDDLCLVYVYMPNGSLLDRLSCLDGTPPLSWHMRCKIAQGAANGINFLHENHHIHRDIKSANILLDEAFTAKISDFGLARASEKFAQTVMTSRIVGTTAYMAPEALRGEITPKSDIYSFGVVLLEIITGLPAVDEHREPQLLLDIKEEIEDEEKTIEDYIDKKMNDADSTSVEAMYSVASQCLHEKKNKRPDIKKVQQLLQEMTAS
row,IC50 [nM],SMILES
1,< 100,"Cc1cccc(-n2ncc3ccc(-c4cccc(C(N)CCO)n4)cc32)n1 (stereo not shown) [Example 247, 3-amino-3-(6-(1-(6-methylpyridin-2-yl)-1H-indazol-6-yl)pyridin-2-yl)propan-1-ol]"
2,100 to 1000,"Cc1cccc(-n2ncc3ccc(-c4cccc(C(N)=O)n4)cc32)n1 [Example 248, 6-(1-(6-methylpyridin-2-yl)-1H-indazol-6-yl)picolinamide]"
3,100 to 1000,"Cc1cccc(-n2ncc3ccc(-c4cccc(CC#N)n4)cc32)n1 [Example 249, 2-(6-(1-(6-methylpyridin-2-yl)-1H-indazol-6-yl)pyridin-2-yl)acetonitrile]"
4,< 100,"Cc1cccc(-n2ncc3c(O)cc(-c4cccc(C(C)N)n4)cc32)n1 (stereo not shown) [Example 250, 6-(6-(1-aminoethyl)pyridin-2-yl)-1-(6-methylpyridin-2-yl)-1H-indazol-4-ol]"
5,100 to 1000,Cc1cccc(-n2ncc3c(OCC4CC4)cc(-c4cccc(C(C)N)n4)cc32)n1 (stereo not shown) [Example 251]
6,100 to 1000,"Cc1cccc(-n2ncc3ccc(-c4csc(CN)n4)cc32)n1 [Example 252, (4-(1-(6-methylpyridin-2-yl)-1H-indazol-6-yl)thiazol-2-yl)methanamine]"
7,1000 to 10000,"CC(=O)NCc1cccc(-c2ccc3cnn(-c4cccc(C)n4)c3c2)n1 [Example 253, N-((6-(1-(6-methylpyridin-2-yl)-1H-indazol-6-yl)pyridin-2-yl)methyl)acetamide]"
8,100 to 1000,"Cc1cccc(-n2ncc3ccc(-c4cccc(CCN)n4)cc32)n1 [Example 254, 2-(6-(1-(6-methylpyridin-2-yl)-1H-indazol-6-yl)pyridin-2-yl)ethanamine]"
9,100 to 1000,"Cc1cccc(-n2ncc3ccc(-c4ccc(C(F)(F)F)c(C(C)N)n4)cc32)n1 (stereo not shown) [Example 255, 1-(6-(1-(6-methylpyridin-2-yl)-1H-indazol-6-yl)-3-(trifluoromethyl)pyridin-2-yl)ethanamine]"
10,< 100,"Cc1cccc(-n2ncc3ccc(-c4cc(N)cc(C(C)N)n4)cc32)n1 (stereo not shown) [Example 256, 2-(1-aminoethyl)-6-(1-(6-methylpyridin-2-yl)-1H-indazol-6-yl)pyridin-4-amine]"
11,< 100,"Cc1cccc(-n2ncc3ccc(-c4cn(C)c(CO)n4)cc32)n1 [Example 257, (1-methyl-4-(1-(6-methylpyridin-2-yl)-1H-indazol-6-yl)-1H-imidazol-2-yl)methanol]"
12,100 to 1000,"Cc1cccc(-n2ncc3ccc(-c4cccc(C(N)C#N)n4)cc32)n1 (stereo not shown) [Example 258, 2-amino-2-(6-(1-(6-methylpyridin-2-yl)-1H-indazol-6-yl)pyridin-2-yl)acetonitrile]"
13,100 to 1000,"Cc1cccc(-n2ncc3ccc(-c4cccc(C(N)C(F)(F)F)n4)cc32)n1 (stereo not shown) [Example 259, 2,2,2-trifluoro-1-(6-(1-(6-methylpyridin-2-yl)-1H-indazol-6-yl)pyridin-2-yl)ethanamine]"
14,100 to 1000,"Cc1cccc(-n2ncc3ccc(-c4cccc(C(N)CC(=O)O)n4)cc32)n1 (stereo not shown) [Example 260, 3-amino-3-(6-(1-(6-methylpyridin-2-yl)-1H-indazol-6-yl)pyridin-2-yl)propanoic acid]"
15,< 100,"COC(=O)CC(N)c1cccc(-c2ccc3cnn(-c4cccc(C)n4)c3c2)n1 (stereo not shown) [Example 261, methyl 3-amino-3-(6-(1-(6-methylpyridin-2-yl)-1H-indazol-6-yl)pyridin-2-yl)propanoate]"
16,100 to 1000,"Cc1cccc(-n2ncc3ccc(-c4cccc(C5(N)CC5)n4)cc32)n1 [Example 262, 1-(6-(1-(6-methylpyridin-2-yl)-1H-indazol-6-yl)pyridin-2-yl)cyclopropanamine]"
17,< 100,"CCC(N)c1cccc(-c2ccc3cnn(-c4cccc(C)n4)c3c2)n1 (stereo not shown) [Example 263, 1-(6-(1-(6-methylpyridin-2-yl)-1H-indazol-6-yl)pyridin-2-yl)propan-1-amine]"
18,< 100,"CCC[C@@H](N)c1cccc(-c2ccc3cnn(-c4cccc(C)n4)c3c2)n1 [Example 264, (R)-1-(6-(1-(6-methylpyridin-2-yl)-1H-indazol-6-yl)pyridin-2-yl)butan-1-amine]"
19,100 to 1000,"Cc1cccc(-n2ncc3ccc(-c4ccc(Cl)c(C(C)N)n4)cc32)n1 (stereo not shown) [Example 266, 1-(3-chloro-6-(1-(6-methylpyridin-2-yl)-1H-indazol-6-yl)pyridin-2-yl)ethanamine]"
20,100 to 1000,"Cc1cccc(-n2ncc3ccc(-c4cccc(C(N)C(N)=O)n4)cc32)n1 (stereo not shown) [Example 267, 2-amino-2-(6-(1-(6-methylpyridin-2-yl)-1H-indazol-6-yl)pyridin-2-yl)acetamide]"
21,< 100,"CCCC(N)c1cccc(-c2ccc3cnn(-c4cccc(C(F)(F)F)n4)c3c2)n1 (stereo not shown) [Example 268, 1-(6-(1-(6-(trifluoromethyl)pyridin-2-yl)-1H-indazol-6-yl)pyridin-2-yl)butan-1-amine]"

row,IC50 [nM],SMILES
1,< 100,"CCC(N)c1cccc(-c2ccc3cnn(-c4cccc(C(N)=O)n4)c3c2)n1 (stereo not shown) [Example 269, 6-(6-(6-(1-aminopropyl)pyridin-2-yl)-1H-indazol-1-yl)picolinamide]"
2,< 100,"CC(N)c1cc(N)cc(-c2ccc3cnn(-c4cccc(C(F)(F)F)n4)c3c2)n1 (stereo not shown) [Example 270, 2-(1-aminoethyl)-6-(1-(6-(trifluoromethyl)pyridin-2-yl)-1H-indazol-6-yl)pyridin-4-amine]"
3,< 100,"Cc1cccc(-n2ncc3ccc(-c4cccc(C(N)CO)n4)cc32)n1 (stereo not shown) [Example 271, 2-amino-2-(6-(1-(6-methylpyridin-2-yl)-1H-indazol-6-yl)pyridin-2-yl)ethanol]"
4,100 to 1000,"COC(=O)C(N)c1cccc(-c2ccc3cnn(-c4cccc(C)n4)c3c2)n1 (stereo not shown) [Example 272, methyl 2-amino-2-(6-(1-(6-methylpyridin-2-yl)-1H-indazol-6-yl)pyridin-2-yl)acetate]"
5,< 100,"Cc1cccc(-n2ncc3ccc(-c4cccc(C(N)C(=O)O)n4)cc32)n1 (stereo not shown) [Example 273, 2-amino-2-(6-(1-(6-methylpyridin-2-yl)-1H-indazol-6-yl)pyridin-2-yl)acetic acid]"
6,< 100,"CCCC(N)c1cccc(-c2ccc3cnn(-c4cccc(C(N)=O)n4)c3c2)n1 (stereo not shown) [Example 274, 6-(6-(6-(1-aminobutyl)pyridin-2-yl)-1H-indazol-1-yl)picolinamide]"
7,< 100,"CC(N)c1cccc(-c2ccc3cnn(-c4cccc(C(C)(C)O)n4)c3c2)n1 (stereo not shown) [Example 278, 2-(6-(6-(6-(1-aminoethyl)pyridin-2-yl)-1H-indazol-1-yl)pyridin-2-yl)propan-2-ol]"
8,< 100,"COCc1cccc(-n2ncc3ccc(-c4cccc(C(C)N)n4)cc32)n1 (stereo not shown) [Example 279, 1-(6-(1-(6-(methoxymethyl)pyridin-2-yl)-1H-indazol-6-yl)pyridin-2-yl)ethanamine]"
9,< 100,"Cc1cccc(-n2ncc3ccc(-c4ccc(C)c(C(C)N)n4)cc32)n1 (stereo not shown) [Example 281, 1-(3-methyl-6-(1-(6-methylpyridin-2-yl)-1H-indazol-6-yl)pyridin-2-yl)ethanamine]"
10,1000 to 10000,"Cc1csc(-n2ncc3ccc(-c4cccc(C(C)N)n4)cc32)c1 (stereo not shown) [Example 282, 1-(6-(1-(4-methylthiophen-2-yl)-1H-indazol-6-yl)pyridin-2-yl)ethanamine]"
11,< 100,"CCCc1cccc(-n2ncc3ccc(-c4cccc(C(C)N)n4)cc32)n1 (stereo not shown) [Example 283, 1-(6-(1-(6-propylpyridin-2-yl)-1H-indazol-6-yl)pyridin-2-yl)ethanamine]"
12,< 100,"CC(N)c1cccc(-c2ccc3cnn(-c4cccc(C(C)O)n4)c3c2)n1 (stereo not shown) [Example 284, 1-(6-(6-(6-(1-aminoethyl)pyridin-2-yl)-1H-indazol-1-yl)pyridin-2-yl)ethanol]"
13,1000 to 10000,"Cc1cccc(-n2ncc3ccc(-c4coc(CN)n4)cc32)n1 [Example 285, (4-(1-(6-methylpyridin-2-yl)-1H-indazol-6-yl)oxazol-2-yl)methanamine]"
14,< 100,"CC(N)c1cccc(-c2ccc3cnn(-c4cccc(C(C)(C)C)n4)c3c2)n1 (stereo not shown) [Example 286, 1-(6-(1-(6-(tert-butyl)pyridin-2-yl)-1H-indazol-6-yl)pyridin-2-yl)ethanamine]"
15,100 to 1000,"CC(N)c1cccc(-c2ccc3cnn(-c4cccc(CN)n4)c3c2)n1 (stereo not shown) [Example 287, 1-(6-(1-(6-(aminomethyl)pyridin-2-yl)-1H-indazol-6-yl)pyridin-2-yl)ethanamine]"
16,100 to 1000,"CC(N)c1cccc(-c2ccc3cnn(-c4cccc(C(C)(C)C#N)n4)c3c2)n1 (stereo not shown) [Example 288, 2-(6-(6-(6-(1-aminoethyl)pyridin-2-yl)-1H-indazol-1-yl)pyridin-2-yl)-2-methylpropanenitrile]"
17,1000 to 10000,"CC(N)c1cccc(-c2ccc3cnn(-c4cccc(C(C)(C)S(C)(=O)=O)n4)c3c2)n1 (stereo not shown) [Example 289, 1-(6-(1-(6-(2-(methylsulfonyl)propan-2-yl)pyridin-2-yl)-1H-indazol-6-yl)pyridin-2-yl)ethanamine]"
18,< 100,"CC(N)c1cccc(-c2ccc3cnn(-c4cccc(C5(C#N)CC5)n4)c3c2)n1 (stereo not shown) [Example 290, 1-(6-(6-(6-(1-aminoethyl)pyridin-2-yl)-1H-indazole-1-yl)pyridin-2-yl)cyclopropanecarbonitrile]"
19,< 100,"NCc1cccc(-c2ccc3cnn(-c4cccc(CO)n4)c3c2)n1 [Example 291, (6-(6-(6-(aminomethyl)pyridin-2-yl)-1H-indazol-1-yl)pyridin-2-yl)methanol]"
20,1000 to 10000,"CC(N)c1cccc(-c2ccc3cnn(-c4cccc(C(C)(C)N)n4)c3c2)n1 (stereo not shown) [Example 292, 2-(6-(6-(6-(1-aminoethyl)pyridin-2-yl)-1H-indazol-1-yl)pyridin-2-yl)propan-2-amine]"

row,SMILES,IC50 [nM]
1,"CCC[C@H](N)c1cccc(-c2ccc3cnn(-c4cccc(C)n4)c3c2)n1 [Example 265, (S)-1-(6-(1-(6-methylpyridin-2-yl)-1H-indazol-6-yl)pyridin-2-yl)butan-1-amine]",< 100
2,"CCCC(N)c1cccc(-c2ccc3cnn(-c4cccc(CO)n4)c3c2)n1 (stereo not shown) [Example 280, (6-(6-(6-(1-aminobutyl)pyridin-2-yl)-1H-indazol-1-yl)pyridin-2-yl)methanol]",< 100
